{"source": "patent USRE37781E1", "about": "“Substituted cyclic carbonyls and derivatives thereof useful as retroviral protease inhibitors” (DuPont Pharmaceuticals Company, priority 1991, dated 2002)", "key": {"[1]": {"system": "HIV(3B) or HIV(RF) in MT-2 cells", "type": "cell-based", "design": "scale not given here", "details": "Table E, whole cell infectivity assay", "experimental": "HIV Low Multiplicity Assay\nMaterials: MT-2, a human T-cell line, was cultured in RPMI medium supplemented with 5% (v/v) heat inactivated fetal calf serum (FCS), L-glutamine and gentamycin (GIBCO). Human immunodeficiency virus strains HIV (3B) and HIV (RF) were propagated in H-9 cells in RPMI with 5% FCS. XTT, benzene-sulfonic acid, 3,3′-[1-[(phenylamino) carbonyl]-3,4-tetrazolium]bis (4-methoxy-6nitro)-, sodium salt, was obtained from Starks Associates, Inc.\nMethod: Test compounds were dissolved in dimethylsulfoxide to 5 mg/ml and serially diluted into RPMI medium to ten times the desired final concentration. MT-2 cells (5×10^4/0.1 mL) were added to each well of a 96 well culture plate and 0.02 mL of the appropriate test compound solution was added to the cells such that each compound concentration was present in two wells. The cells and compounds were allowed to sit for 30 minutes at room temperature. HIV(3B) or HIV(RF) (−5×10^5 plaque foaming units/mL) was diluted in medium and added to the cell and compound mixtures to give a multiplicity of infection of 0.01 plaque forming unit/cell. The mixtures were incubated for 7 days at 36° C., during which time the virus replicated and caused the death of unprotected cells. The percentage of cells protected from virus induced cell death was determined by the degree of metabolism of the tetrazolium dye, XTT. In living cells, XTT was metabolized to a colored formazan product which was quantitated spectrophotometrically at 450 nm. The amount of colored formazan was proportional to the number of cells protected from virus by the test compound. The concentration of compound protecting either 50% (IC50) or 90% (IC90) with respect to an uninfected cell culture was determined."}, "HIV protease": {"biological_target": "T1, HIV protease (Human immunodeficiency virus type 1 group M subtype B, UniProt P04585)", "T1 construct": "plasmid containing HIV protease under the control of an inducible T7 promoter; made in house; host or cells: E. coli (inclusion bodies, T7 promoter)", "experiment": "biochemical", "design": "species or system HIV-1", "experimental": "HIV Protease Inhibition Assay—Spectroscopic Method\nInclusion bodies were solubilized in 8M urea, 50 mM tris pH 8.0. Protease activity was recovered by dilution 20-fold into buffer containing 50 mM sodium acetate pH 5.5, 1 mM EDTA, 10% glycerol and 5% ethylene glycol. Enzyme was used at a final concentration of 1.0-10 ug/ml.\nStock solutions of 10 mM were prepared in DMSO.\nAll further dilutions were done in DMSO."}, "HIV-1 protease": {"system": "HIV-1 protease", "experiment": "HIV-1 Protease Transgenic Mouse Model (cataract phenotype)", "details": "for Cataract Density (% of control): Tg 61 mouse; for Delay in Cataract (relative to control): Tg 72 mouse", "quoted_text": "The HIV protease inhibitory activity of the presently claimed compounds was measured in this animal system as a delay or prevention of the onset of cataract appearance in the test animals.\nPlasmid Construction: The mammalian expression vector pMSG (Pharmacia) was modified by replacing the MMTV LTR promoter with the 412-bp Bgl II-BamHI mouse alpha A-cryatallin promoter fragment (Chepelinsky et al. Proc. Natl. Acad. Sci. USA, 1985, 82, 2334-2338). The SV40 early splice and polyadenylation signals were retained and this plasmid was renamed pCSV 19. A single chain, tethered dimeric form of the active HIV-1 protease gene (BAA; Cheng et al., Proc. Natl. Acad. Sci. USA, 1990, 87, 9660-9664 and Cheng et al., Gene, 1990, 87, 243-248) was modified for mammalian cell expression by replacing nucleotides 7 to 90 with [sequence]. The gene was cut with EcoRI and Hind III and after blunt-end repair cloned into the Sma I site of the pCSV 19, thus producing PCSV 19-BAA.\nConstruction of Transgenic Mice: 2.5 kb Hind III fragments from the pCSV 19-BAA and pCSV 19-BA*A* plasmids were isolated (modified from Sambrook at al., Molecular Cloning, A Laboratory Manual, 2nd Ed., 1989, Cold Spring Harbor Laboratory) and used for the construction of transgenic mice using the pronuclei injection method (Hogan et al., Manipulating the Mouse Embryo. A Laboratory Manual, 1986, Cold Spring Harbor Laboratory). Mice were screened for the HIV-1 protease transgene by either Southern blot or Polymerase Chain Reaction (PCR) methods. Mice of the FVB/N strain (Taketo et al., Proc. Natl. Acad Sci. USA, 1991, 88, 2065-2069) were used for the construction and breeding of these transgenic mice, and were originally obtained from Dr. Carl Hansen (NIH) and bred in our facility. Subsequently, the mice were purchased from Charles River Laboratory (Portage, Mich.).\nIdentification of Transgenic Mice: Southern blot analysis (Sambrook et al. vide supra) was performed on DNA purified from tail biopsies (Hogan et al. vide supra) using the 2.5 kb Hind III fragment from pCSV 19-BAA as the probe (^32P labeled). DNA for PCR was prepared from tail biopsies by overnight digestion with 0.5 mg of Proteinase K (Boehringer-Manheim GmbH) in 100 μl of water and 0.025% SDS. PCR primers specific for the mouse c-fos gene and the transgene's SV40 segment were used as an internal control in some samples. Each PCR reaction contained 1-2 μl of tail digest, 60 μg of each primer, 200 μM of Perkin Elmer Cetus dATP, dCTP, dGTP,TTP (buffered at pH 8.8) and up to 5 units of Perkin Elmer Cetus Ampli/Taq polymerase. The reactions were run on a Perkin Elmer DNA Thermal Cycler as follows: 1 min at 94° C., 3 min at 67° C. (2 sec extension/cycle) for 35 cycles. The PCR products were analyzed by gel electrophoresis (1% agarose,0.5 μg/ml of ethidium bromide), and tail samples with a 625 PCR fragment (SV40 specific) were considered positive for the transgene. Mice bearing the active HIV-1 protease transgene were also identified by their cataract phenotype.\nDosing Regimen: Compounds to be tested were pulverized by manual grinding with mortar and pestle. Just prior to dosing of mice, the compound was suspended in 0.25% methylcellulose/Tween 80 solution, homogenized in a manual Dounce homogenizer and sonicated for 10 min in a sonicating water bath. The volume of suspension was adjusted so that the amount of compound required for dosing one mouse was 0.1-0.2 mL. In order to maintain the required mg/kg dose, an average mouse weight for each group was determined twice a week and the amount of compound adjusted accordingly. Intraperitoneal (ip) and oral (po) dosing was performed using 25 G ⅝ in. injection and 20 G 1½ in. feeding needles, respectively. The dosing was performed twice a day (bid) and the doses were administered 6-8 h apart."}, "[2]": {"experiment": "Oral bioavailability studies in fasted beagle dogs", "type": "in vivo", "details": "for bioavailability: beagle, dog, plasma, po, excipient glycol, read-out: % Oral Bioavailability of 5U (Mean ± SE)", "experimental": "Improved water solubility can result in increasing the extent of oral bioavailability. Oral bioavailability studies were performed in fasted beagle dogs. Compounds were dosed orally using a solution vehicle or the solid drug powder filled into hard gelatin capsules. Periodic blood samples were taken from each dog and plasma was separated. Plasma drug concentrations were determined using extraction and HPLC analysis. Generally, after the administration of 5U or its prodrugs 29A-E, the plasma concentrations of 5U were determined, rather than unchanged prodrug concentrations. […] Oral bioavailability is expressed as the percentage of the oral dose absorbed. […] Therefore, in order to attain improved oral bioavailability, 5U was administered using a solution with polyethylene glycol 400 or propylene glycol as the vehicle. […] Improved oral bioavailability was attained when the water soluble prodrugs were administered in the solid form, with no added excipients or solvents. […] The advantage of the water soluble prodrugs is especially clear at high doses. […] Samples were then extracted again and assayed for 5U concentration. […] Thus, plasma levels of both intact prodrug and hydrolysis product can be attained using these water soluble prodrugs."}, "HIV-1 (RF) in MT-2 cells": {"system": "HIV-1 (RF) in MT-2 cells", "experiment": "microbe, parasite or virus in culture", "type": "cell-based", "details": "Human immunodeficiency virus 1, MT2, HIV RNA assay, HIV-1 infected MT-2 cells; class symbols; read-out: IC90", "in_short": "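Read-out: gag and pol viral RNA captured by 5′-biotinylated oligonucleotides on streptavidin-coated wells, detected with alkaline phosphatase-linked reporter oligonucleotides, calibrated against BH10 in vitro transcripts. Virus stocks (RF, MN, IIIB) come from H9 cultures; MT-2 host cells kept in RPMI 1640, 5% FCS.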"}, "Solubility studies": {"experiment": "Solubility studies", "type": "physicochemical", "experimental": "For compounds of the present invention having reduceded water solubility it may be advantageous to prepare prodrugs to enhance the solubility and bioavailability of these compounds. […] Solubility studies were performed by mixing an excess of solid compound in water or aqueous medium for at least 4 hours. Solubility was assessed either visually, if a weighed amount clearly dissolved in a measured volume of solvent (method A), or by HPLC assay of filtrates of saturated solutions (method B)."}, "[3]": {"biological_target": "single-chain tethered dimer of HIV protease (Human immunodeficiency virus 1, UniProt P04585)", "experiment": "biochemical", "type": "biochemical"}, "[4]": {"experiment": "Hydrolysis of prodrugs to 5U in biological fluids in vitro", "type": "in vitro ADME", "details": "exposed to plasma or intestinal enzymes in vitro, 37° C.", "experimental": "Compounds 29A-29E are hydrolyzed to parent compound 5U in biological fluids in vitro. This was shown as follows. Plasma was collected from rats, dogs, or human volunteer, and was used within 24 hours. […] After various times of incubation at 37° C., the hydrolysis reaction was quenched with the addition of an organic solvent. The organic solvent was used for extraction of 5U, and concentrations of 5U in the plasma aliquots were determined using HPLC after extraction. Concentrations of 5U were thus measured vs. time of incubation of the prodrug in plasma at 37° C. Similar studies were performed using a homogenate of rat intestinal tissue (10% w/v) as the hydrolysis medium. Results for in vitro hydrolysis of prodrug 29B in dog plasma and rat intestinal homogenate (10% w/v) are given in Table B. Results for in vitro hydrolysis of prodrug 29C in rat, dog and human plasma are given in Table C. […] Other salt forms of these compounds, such as prodrugs 29A and 29D, will be similar to their free acid or free base forms."}}, "note": "Like-named read-outs stand apart in the source and are kept apart here.", "data": [{"smiles": "CC(C)=CCN1C(=O)N(CC=C(C)C)C(Cc2ccccc2)C(O)C(O)C1Cc1ccccc1", "note": "(centres unmarked) [Example 1AC]", "values": [{"measurement": "IC90", "setting": "[1]", "value": "+ + +"}, {"measurement": "Ki", "setting": "HIV protease; Table 1a, read-out: Ki", "value": "< 10", "unit": "nM"}, {"measurement": "melting point", "value": "160 to 163", "unit": "°C"}]}, {"smiles": "CCCN1C(=O)N(CCC)C(Cc2ccccc2)C(O)C(O)C1Cc1ccccc1", "note": "(centres unmarked) [Example 1AF]", "values": [{"measurement": "IC90", "setting": "[1]", "value": "+ + +"}, {"measurement": "melting point", "value": "180 to 182", "unit": "°C"}]}, {"smiles": "CC(C)CCN1C(=O)N(CCC(C)C)C(Cc2ccccc2)C(O)C(O)C1Cc1ccccc1", "note": "(centres unmarked) [Example 1AH]", "values": [{"measurement": "IC90", "setting": "[1]", "value": "+ + +"}, {"measurement": "Ki", "setting": "HIV protease; Table 1a, read-out: Ki", "value": "< 10", "unit": "nM"}, {"measurement": "melting point", "value": "194 to 195", "unit": "°C"}]}, {"smiles": "O=C1N(Cc2ccccc2)C(Cc2ccccc2)C(O)C(O)C(Cc2ccccc2)N1Cc1ccccc1", "note": "(centres unmarked) [Example 1AQ]", "values": [{"measurement": "Cataract Density (% of control)", "setting": "HIV-1 protease; 60 mg/kg ip preg days 11-18", "value": "46.6 % of control"}, {"measurement": "Cataract Density (% of control)", "setting": "HIV-1 protease; 85 mg/kg ip preg days 11-18, 17-18", "value": "20.6 % of control"}, {"measurement": "IC90", "setting": "[1]", "value": "+ + +"}, {"measurement": "Ki", "setting": "HIV protease; Ki", "value": "< 10", "unit": "nM"}]}, {"smiles": "C=CCN1C(=O)N(CC=C)C(Cc2ccccc2)C(O)C(O)C1Cc1ccccc1", "note": "(centres unmarked) [Example 1C]", "values": [{"measurement": "IC90", "setting": "[1]", "value": "+ + +"}, {"measurement": "Ki", "setting": "HIV protease; Ki, Table 1a", "value": "< 10", "unit": "nM"}]}, {"smiles": "O=C1N(CC2CC2)[C@H](Cc2ccccc2)[C@H](O)[C@@H](O)[C@@H](Cc2ccccc2)N1CC1CC1", "note": "[Example 1X]", "values": [{"measurement": "Cataract Density (% of control)", "setting": "HIV-1 protease; 5 mg/kg ip preg days 11-18", "value": "39.8 % of control"}, {"measurement": "Cataract Density (% of control)", "setting": "HIV-1 protease; 15 mg/kg ip preg days 11-18", "value": "28.8 % of control"}, {"measurement": "IC90", "setting": "[1]", "value": "+ + +"}, {"measurement": "Ki", "setting": "HIV protease; Table 1a, read-out: Ki", "value": "< 10", "unit": "nM"}]}, {"smiles": "CCCCN1C(=O)N(CCCC)C(Cc2ccccc2)C(O)C(O)C1Cc1ccccc1", "note": "(centres unmarked) [Example 1Z]", "values": [{"measurement": "IC90", "setting": "[1]", "value": "+ + +"}, {"measurement": "Ki", "setting": "HIV protease; Table 1a, read-out: Ki", "value": "< 10", "unit": "nM"}]}, {"smiles": "O=C1N(Cc2ccc(CO)cc2)C(Cc2ccccc2)C(O)C(O)C(Cc2ccccc2)N1Cc1ccc(CO)cc1", "note": "(centres unmarked) [Example 5U]", "values": [{"measurement": "Delay in Cataract (relative to control)", "setting": "HIV-1 protease; 100 mg/kg bid ip", "value": 5, "unit": "days"}, {"measurement": "Delay in Cataract (relative to control)", "setting": "HIV-1 protease; 400 mg/kg bid ip days 15-42", "value": 45, "unit": "days"}, {"measurement": "oral bioavailability", "setting": "[2]; administered as the solid powder", "value": "low oral bioavailability"}, {"measurement": "bioavailability", "setting": "[2]; dose 40 mg/kg 5U eq.", "value": "5 ± 2", "unit": "%"}, {"measurement": "bioavailability", "setting": "[2]; dose 10-15 mg/kg 5U eq.", "value": "50 ± 20", "unit": "%"}, {"measurement": "oral bioavailability", "setting": "[2]; similar (high) dose in a non-aqueous vehicle", "value": "relatively poor oral bioavailability"}, {"measurement": "IC90", "setting": "HIV-1 (RF) in MT-2 cells", "value": "< 10", "unit": "µg/mL"}, {"measurement": "Solubility", "setting": "Solubility studies; thermodynamic from solid, water, method B (HPLC assay of filtrates of saturated solutions), read-out: Solubility", "value": 10, "unit": "µg/mL"}, {"measurement": "Ki", "setting": "[3]", "value": "< 10", "unit": "nM"}]}, {"smiles": "O=C1N(Cc2ccc(COP(=O)(O)O)cc2)[C@H](Cc2ccccc2)[C@H](O)[C@@H](O)[C@@H](Cc2ccccc2)N1Cc1ccc(COP(=O)(O)O)cc1", "note": "[Example 29A]", "values": [{"measurement": "Solubility", "setting": "Solubility studies", "value": 2250, "unit": "µg/mL"}]}, {"smiles": "CN(C)CC(=O)OCc1ccc(CN2C(=O)N(Cc3ccc(COC(=O)CN(C)C)cc3)[C@H](Cc3ccccc3)[C@H](O)[C@@H](O)[C@H]2Cc2ccccc2)cc1", "note": "[Example 29C]", "values": [{"measurement": "Solubility", "setting": "Solubility studies; 0.1M citric acid, method A (visually)", "value": ">20000", "unit": "µg/mL"}, {"measurement": "conversion of prodrug to parent 5U", "setting": "[4]", "value": "readily convert to parent 5U"}]}, {"smiles": "CN(C)CC(=O)OCc1ccc(CN2C(=O)N(Cc3ccc(CO)cc3)[C@H](Cc3ccccc3)[C@H](O)[C@@H](O)[C@H]2Cc2ccccc2)cc1.Cl", "note": "[Example 29D]", "values": [{"measurement": "Solubility", "setting": "Solubility studies; water, method A (visually)", "value": ">200000", "unit": "µg/mL"}]}, {"smiles": "CN(C)CC(=O)OCc1ccc(CN2C(=O)N(Cc3ccc(COC(=O)CN(C)C)cc3)[C@H](Cc3ccccc3)[C@H](O)[C@@H](O)[C@H]2Cc2ccccc2)cc1.Cl", "note": "[Example 29E]", "values": [{"measurement": "AUC of intact esters (total of mono and bis ester) relative to that of 5U", "setting": "[2]; oral, plasma treated with NaOH", "value": "approximately 2 fold"}, {"measurement": "conversion of prodrug to parent 5U", "setting": "[4]", "value": "readily convert to parent 5U"}]}]}
